In ChEMBL document CHEMBL1201862, “PubChem BioAssay data set” (2004):
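Following 48 hours of exposure in 96-well plates, responses at five concentrations were used to interpolate endpoints linearly. At the GI50, growth is halved.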 Activity calls are given as the source filed them. Cut-off read from the data, not from the text of the source: active = GI50 up to about 1.1 µM and inactive = higher.

What was measured:
Assay in all cases: NCI-60 cell line screen, 48 h
SK-OV-3 = system: SK-OV-3
SNB-19 = system: SNB-19
PC-3 = system: PC-3
NCI-H23 = system: NCI-H23
HT-29 = system: HT-29
OVCAR-8 = system: OVCAR-8
HOP-62 = system: HOP-62
SN12C = system: SN12C
SW-620 = system: SW-620
OVCAR-5 = system: OVCAR-5
K562 = system: K562
U-251 = system: U-251
SK-MEL-28 = system: SK-MEL-28
MCF7 = system: MCF7
SNB-75 = system: SNB-75
HL-60 = system: HL-60
RPMI-8226 = system: RPMI-8226
IGROV-1 = system: IGROV-1
NCI-H226 = system: NCI-H226
786-0 = system: 786-0
A549 = system: A549
MDA-MB-231 = system: MDA-MB-231
OVCAR-3 = system: OVCAR-3
UACC-62 = system: UACC-62
HOP-92 = system: HOP-92
A498 = system: A498
SF-295 = system: SF-295
EKVX = system: EKVX
RXF 393 = system: RXF 393
CAKI-1 = system: CAKI-1
MDA-N = system: MDA-N
MOLT-4 = system: MOLT-4
NCI-H460 = system: NCI-H460
HCT-116 = system: HCT-116
NCI/ADR-RES = system: NCI/ADR-RES
BT-549 = system: BT-549
UACC-257 = system: UACC-257
M14 = system: M14
ACHN = system: ACHN
LOX IMVI = system: LOX IMVI
SR = system: SR
KM12 = system: KM12
DU-145 = system: DU-145
TK-10 = system: TK-10
OVCAR-4 = system: OVCAR-4
UO-31 = system: UO-31
SK-MEL-5 = system: SK-MEL-5
SF-268 = system: SF-268
COLO 205 = system: COLO 205
HCT-15 = system: HCT-15
T47D = system: T47D
SF-539 = system: SF-539
SK-MEL-2 = system: SK-MEL-2
NCI-H522 = system: NCI-H522
MDA-MB-435 = system: MDA-MB-435
HCC 2998 = system: HCC 2998
Hs-578T = system: Hs-578T
CCRF-CEM = system: CCRF-CEM
Malme-3M = system: Malme-3M

Compound: Cn1nc(-c2ccc(S(=O)(=O)N/C(=N/c3ccc(Cl)cc3)NN)s2)cc1C(F)(F)F
- GI50 (SK-OV-3): 20.9 µM (inactive)
- GI50 (SNB-19): 16.5 µM (inactive)
- GI50 (PC-3): 16.9 µM (inactive)
- GI50 (NCI-H23): 20.3 µM (inactive)
- GI50 (HT-29): 16.2 µM (inactive)
- GI50 (OVCAR-8): 19.6 µM (inactive)
- GI50 (HOP-62): 16.5 µM (inactive)
- GI50 (SN12C): 15.3 µM (inactive)
- GI50 (SW-620): 18.4 µM (inactive)
- GI50 (OVCAR-5): 15.9 µM (inactive)
- GI50 (K562): 14.1 µM (inactive)
- GI50 (U-251): 14.6 µM (inactive)
- GI50 (SK-MEL-28): 18.3 µM (inactive)
- GI50 (MCF7): 21 µM (inactive)
- GI50 (SNB-75): 16.3 µM (inactive)
- GI50 (HL-60): < 0.01 µM (active)
- GI50 (RPMI-8226): 21.3 µM (inactive)
- GI50 (IGROV-1): 19.3 µM (inactive)
- GI50 (NCI-H226): 13.4 µM (inactive)
- GI50 (786-0): 14.9 µM (inactive)
- GI50 (A549): 15 µM (inactive)
- GI50 (MDA-MB-231): 16.8 µM (inactive)
- GI50 (OVCAR-3): 19.7 µM (inactive)
- GI50 (UACC-62): 16.9 µM (inactive)
- GI50 (HOP-92): 20.4 µM (inactive)
- GI50 (A498): 16.4 µM (inactive)
- GI50 (SF-295): 16.2 µM (inactive)
- GI50 (EKVX): 14.8 µM (inactive)
- GI50 (RXF 393): 11.1 µM (inactive)
- GI50 (CAKI-1): 18.7 µM (inactive)
- GI50 (MDA-N): 14.2 µM (inactive)
- GI50 (MOLT-4): 4.06 µM (inactive)
- GI50 (NCI-H460): 19.9 µM (inactive)
- GI50 (HCT-116): 14.9 µM (inactive)
- GI50 (NCI/ADR-RES): 21.8 µM (inactive)
- GI50 (BT-549): 17.8 µM (inactive)
- GI50 (UACC-257): 19.5 µM (inactive)
- GI50 (M14): 17.5 µM (inactive)
- GI50 (ACHN): 18.4 µM (inactive)
- GI50 (LOX IMVI): 18.3 µM (inactive)
- GI50 (SR): 17.4 µM (inactive)
- GI50 (KM12): 16.6 µM (inactive)
- GI50 (DU-145): 17.1 µM (inactive)
- GI50 (TK-10): 19.1 µM (inactive)
- GI50 (OVCAR-4): 15.9 µM (inactive)
- GI50 (UO-31): 14.6 µM (inactive)
- GI50 (SK-MEL-5): 18.2 µM (inactive)
- GI50 (SF-268): 17.7 µM (inactive)
- GI50 (COLO 205): 17.1 µM (inactive)
- GI50 (HCT-15): 21.8 µM
- GI50 (T47D): 13.3 µM (inactive)
- GI50 (SF-539): 13.5 µM (inactive)
- GI50 (SK-MEL-2): 19.2 µM (inactive)

Compound: COc1cc2c(cc1OC)CC1c3cc(OC)c(OC)cc3CCN1CC2 (stereo unspecified)
- GI50 (SK-OV-3): > 100 µM (inactive)
- GI50 (SNB-19): 0.49 µM (active)
- GI50 (PC-3): > 100 µM (inactive)
- GI50 (NCI-H23): 0.101 µM (active)
- GI50 (HT-29): 27.5 µM (inactive)
- GI50 (OVCAR-8): 95.5 µM (inactive)
- GI50 (NCI-H522): > 100 µM (inactive)
- GI50 (HOP-62): > 100 µM (inactive)
- GI50 (SN12C): > 100 µM (inactive)
- GI50 (SW-620): 84.1 µM (inactive)
- GI50 (OVCAR-5): > 100 µM (inactive)
- GI50 (K562): 89.7 µM (inactive)
- GI50 (U-251): 52.8 µM (inactive)
- GI50 (SK-MEL-28): > 100 µM (inactive)
- GI50 (MCF7): > 100 µM (inactive)
- GI50 (SNB-75): > 100 µM (inactive)
- GI50 (HL-60): 10.6 µM (inactive)
- GI50 (RPMI-8226): 41.8 µM (inactive)
- GI50 (IGROV-1): 52.8 µM (inactive)
- GI50 (NCI-H226): 19.6 µM (inactive)
- GI50 (MDA-MB-435): 40.3 µM (inactive)
- GI50 (786-0): > 100 µM (inactive)
- GI50 (A549): > 100 µM (inactive)
- GI50 (MDA-MB-231): > 100 µM (inactive)
- GI50 (OVCAR-3): > 100 µM (inactive)
- GI50 (HCC 2998): > 100 µM (inactive)
- GI50 (UACC-62): 67 µM (inactive)
- GI50 (HOP-92): 69.3 µM (inactive)
- GI50 (Hs-578T): 22.9 µM (inactive)
- GI50 (A498): > 100 µM (inactive)
- GI50 (SF-295): 95.1 µM (inactive)
- GI50 (EKVX): > 100 µM (inactive)
- GI50 (RXF 393): 83.6 µM (inactive)
- GI50 (CAKI-1): > 100 µM (inactive)
- GI50 (MOLT-4): > 100 µM (inactive)
- GI50 (NCI-H460): 17.5 µM (inactive)
- GI50 (HCT-116): 26.3 µM (inactive)
- GI50 (NCI/ADR-RES): 63.2 µM (inactive)
- GI50 (BT-549): > 100 µM (inactive)
- GI50 (UACC-257): > 100 µM (inactive)
- GI50 (M14): > 100 µM (inactive)
- GI50 (ACHN): 1.64 µM (inactive)
- GI50 (SR): > 100 µM (inactive)
- GI50 (KM12): > 100 µM (inactive)
- GI50 (DU-145): > 100 µM (inactive)
- GI50 (TK-10): > 100 µM (inactive)
- GI50 (OVCAR-4): > 100 µM (inactive)
- GI50 (UO-31): 0.199 µM (active)
- GI50 (SK-MEL-5): 30.8 µM (inactive)
- GI50 (SF-268): 42.1 µM (inactive)
- GI50 (COLO 205): > 100 µM (inactive)
- GI50 (HCT-15): > 100 µM
- GI50 (T47D): > 100 µM (inactive)
- GI50 (SF-539): 58.7 µM (inactive)
- GI50 (SK-MEL-2): > 100 µM (inactive)
- GI50 (CCRF-CEM): > 100 µM (inactive)

Compound: CO/C(=N\N=C(/c1ccccc1)C(F)(F)F)c1ccncc1
- GI50 (SK-OV-3): 46.3 µM (inactive)
- GI50 (SNB-19): > 100 µM (inactive)
- GI50 (PC-3): 26.1 µM (inactive)
- GI50 (NCI-H23): 36.2 µM (inactive)
- GI50 (HT-29): 42.8 µM (inactive)
- GI50 (OVCAR-8): 69.5 µM (inactive)
- GI50 (Malme-3M): 72.8 µM (inactive)
- GI50 (NCI-H522): 26.6 µM (inactive)
- GI50 (HOP-62): 46.6 µM (inactive)
- GI50 (SN12C): 66.8 µM (inactive)
- GI50 (OVCAR-5): > 100 µM (inactive)
- GI50 (K562): 6.44 µM (inactive)
- GI50 (U-251): 48.4 µM (inactive)
- GI50 (SK-MEL-28): 57.7 µM (inactive)
- GI50 (MCF7): 38.6 µM (inactive)
- GI50 (SNB-75): 34.9 µM (inactive)
- GI50 (HL-60): > 100 µM (inactive)
- GI50 (RPMI-8226): 27.6 µM (inactive)
- GI50 (IGROV-1): 63.2 µM (inactive)
- GI50 (NCI-H226): 17.2 µM (inactive)
- GI50 (MDA-MB-435): 18.8 µM (inactive)
- GI50 (MDA-MB-231): 39.3 µM (inactive)
- GI50 (OVCAR-3): 37.8 µM (inactive)
- GI50 (UACC-62): 27.5 µM (inactive)
- GI50 (HOP-92): 53.2 µM (inactive)
- GI50 (Hs-578T): 49.2 µM (inactive)
- GI50 (A498): 87.5 µM (inactive)
- GI50 (SF-295): 48.6 µM (inactive)
- GI50 (RXF 393): 16.3 µM (inactive)
- GI50 (CAKI-1): 45 µM (inactive)
- GI50 (MOLT-4): 19.1 µM (inactive)
- GI50 (NCI-H460): 35.8 µM (inactive)
- GI50 (HCT-116): 28.3 µM (inactive)
- GI50 (NCI/ADR-RES): 20.3 µM (inactive)
- GI50 (BT-549): 31.8 µM (inactive)
- GI50 (M14): 52.6 µM (inactive)
- GI50 (SR): 54.6 µM (inactive)
- GI50 (KM12): 43.7 µM (inactive)
- GI50 (DU-145): 44.5 µM (inactive)
- GI50 (OVCAR-4): 80.7 µM (inactive)
- GI50 (UO-31): 38.6 µM (inactive)
- GI50 (SK-MEL-5): 21.8 µM (inactive)
- GI50 (COLO 205): 28.7 µM (inactive)
- GI50 (HCT-15): 27.5 µM
- GI50 (T47D): 35.2 µM (inactive)
- GI50 (SK-MEL-2): 25 µM (inactive)
- GI50 (CCRF-CEM): 17.4 µM (inactive)
